Results as given in US6780853B1, “Neuroactive steroids of the androstane and pregnane series” (priority 1995, dated 2004).
Read-outs that look alike come from different tables or passages of the source.

Assays:
[1] = test system: STR (strychnine) convulsions; assay: Chemical convulsant test, strychnine; assay type: in vivo, mice; conditions: Mus musculus, read-out: ED50 STR
Description: (§1) The anticonvulsant tests are similar to that described above.

[2] = test system: metrazol induced convulsions; assay: Antimetrazol activity in mice; assay type: in vivo; conditions: Mus musculus; steroid i.p., convulsant s.c., 50% hydroxypropyl-β-cyclodextrin
In short: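 Mice dosed with test compounds at various doses 10 minutes before metrazol (85 mg/kg) injection. Each animal observed for 30 minutes, recording time to onset of myoclonus (forelimb clonic activity).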

hormonal activity = assay: Hormonal activity in vivo; parameters: species or system animals
Description: Thus, they wil not have the hormonal side-effects which would be associated with binding to such steroid receptors.

[3] = test system: BIC (bicuclline) convulsions; assay: Chemical convulsant test, BIC; assay type: in vivo, mice; conditions: Mus musculus; steroid i.p., convulsant s.c., 50% hydroxypropyl-β-cyclodextrin
Description: as §1

Progesterone Receptors = assay: Inhibition of 3H-Progesterone Binding to the Bovine Uteral Progesterone Receptors; conditions: competitor 10^−6M; 3H-progesterone 0.15 nM
TBPS [4] = assay: Chemical convulsant test, column TBPS; assay type: in vivo, mice; conditions: Mus musculus, read-out: ED50 TBPS
Description: as §1

[5] = Rotorod test (general CNS depression potential); parameters: species or system mice; conditions: mouse, in vivo, ip, 50% hydroxypropyl-β-cyclodextrin
Description: as §1

[6] = test system: maximal electroshock tonic seizure; assay: Maximal electroshock test; assay type: in vivo, mice; conditions: Mus musculus, ip, 50% hydroxypropyl-β-cyclodextrin
Description: as §1

Estrogen Receptors = biological target: T1, Estrogen Receptors (Bos taurus, UniProt P49884); assay: Inhibition of 3H-Estradiol Binding to Bovine Uteral Estrogen Receptors; conditions: competitor 10^−6M; 3H-estradiol 0.15 nM
T1 construct: from tissue; host or cells: bovine uterus cytosol
T1 sequence (P49884 1-596): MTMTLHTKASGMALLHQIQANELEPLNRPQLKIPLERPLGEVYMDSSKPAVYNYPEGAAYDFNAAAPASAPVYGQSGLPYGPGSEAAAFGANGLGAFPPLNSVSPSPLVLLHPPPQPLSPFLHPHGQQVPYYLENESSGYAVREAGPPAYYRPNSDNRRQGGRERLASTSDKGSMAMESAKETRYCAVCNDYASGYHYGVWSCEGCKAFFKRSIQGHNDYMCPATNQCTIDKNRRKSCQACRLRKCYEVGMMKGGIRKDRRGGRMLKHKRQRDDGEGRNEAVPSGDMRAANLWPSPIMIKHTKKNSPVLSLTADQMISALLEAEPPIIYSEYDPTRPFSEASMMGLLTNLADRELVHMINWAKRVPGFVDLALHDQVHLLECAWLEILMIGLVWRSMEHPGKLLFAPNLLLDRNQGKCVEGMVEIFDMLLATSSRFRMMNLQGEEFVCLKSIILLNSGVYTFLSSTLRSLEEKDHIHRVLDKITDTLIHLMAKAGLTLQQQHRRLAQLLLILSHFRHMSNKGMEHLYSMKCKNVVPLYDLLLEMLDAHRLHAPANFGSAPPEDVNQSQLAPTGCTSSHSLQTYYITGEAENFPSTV
Procedure: (§2) Various hormonal activities of representative neuroactive steroids were further studied through testing their potential estrogenic, mineralocorticoid and glucocorticoid activities. These activities were analyzed by monitoring the ability of the compounds to inhibit binding of the steroid hormones to their respective hormone receptors.

[7] = biological target: T2, Mineralocorticoid Receptors (Rattus norvegicus, UniProt P22199); assay: Inhibition of 3H-Aldosterone Binding to Hippocampal Mineralocorticoid Receptors; conditions: competitor 10^−6M; 3 nM 3H-aldosterone, RU28362 0.5 μM
T2 construct: To isolate the mineralocorticoid receptor, brain cytosol fractions were prepared; from tissue; host or cells: brain (hippocampal) cytosol of adrenalectomized rats
T2 sequence (P22199 1-981): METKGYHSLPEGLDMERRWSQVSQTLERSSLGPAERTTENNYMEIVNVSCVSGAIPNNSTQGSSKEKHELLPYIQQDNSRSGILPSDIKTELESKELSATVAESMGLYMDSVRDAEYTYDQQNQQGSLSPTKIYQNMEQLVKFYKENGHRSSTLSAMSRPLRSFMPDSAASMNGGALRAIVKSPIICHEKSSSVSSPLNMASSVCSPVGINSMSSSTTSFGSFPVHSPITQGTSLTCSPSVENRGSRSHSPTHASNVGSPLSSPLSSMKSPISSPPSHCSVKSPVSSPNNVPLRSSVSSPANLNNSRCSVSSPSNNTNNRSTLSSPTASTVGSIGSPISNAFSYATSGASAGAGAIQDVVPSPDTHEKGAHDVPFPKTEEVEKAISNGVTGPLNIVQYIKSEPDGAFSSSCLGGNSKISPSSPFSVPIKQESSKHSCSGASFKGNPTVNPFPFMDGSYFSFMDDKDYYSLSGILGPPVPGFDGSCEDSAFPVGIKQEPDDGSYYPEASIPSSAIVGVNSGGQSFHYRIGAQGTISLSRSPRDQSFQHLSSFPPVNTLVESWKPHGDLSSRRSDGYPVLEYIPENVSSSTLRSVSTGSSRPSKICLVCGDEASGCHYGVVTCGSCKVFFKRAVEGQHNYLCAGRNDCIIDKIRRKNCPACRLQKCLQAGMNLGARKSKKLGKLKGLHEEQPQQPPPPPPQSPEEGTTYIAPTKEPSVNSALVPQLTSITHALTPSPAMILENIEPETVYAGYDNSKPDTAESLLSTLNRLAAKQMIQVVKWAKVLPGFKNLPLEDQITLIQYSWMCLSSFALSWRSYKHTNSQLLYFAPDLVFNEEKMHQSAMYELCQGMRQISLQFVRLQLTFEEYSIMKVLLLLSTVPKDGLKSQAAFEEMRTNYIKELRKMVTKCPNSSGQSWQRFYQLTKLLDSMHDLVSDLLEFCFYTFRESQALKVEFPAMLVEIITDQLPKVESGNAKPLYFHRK
Procedure: as §2
In Table 4, rats were adrenalectornized 3 days prior to sacrifice.

Glucocorticoid Receptors = biological target: T3, Glucocorticoid Receptors (Rattus norvegicus, UniProt P06536); assay: Inhibition of 3H-Dexamethasone Binding to Glucocorticoid Receptors; conditions: competitor 10^−6M; 3 nM 3H-dexamethasone
T3 construct: from tissue; host or cells: rat brain cytosol
T3 sequence (P06536 1-795): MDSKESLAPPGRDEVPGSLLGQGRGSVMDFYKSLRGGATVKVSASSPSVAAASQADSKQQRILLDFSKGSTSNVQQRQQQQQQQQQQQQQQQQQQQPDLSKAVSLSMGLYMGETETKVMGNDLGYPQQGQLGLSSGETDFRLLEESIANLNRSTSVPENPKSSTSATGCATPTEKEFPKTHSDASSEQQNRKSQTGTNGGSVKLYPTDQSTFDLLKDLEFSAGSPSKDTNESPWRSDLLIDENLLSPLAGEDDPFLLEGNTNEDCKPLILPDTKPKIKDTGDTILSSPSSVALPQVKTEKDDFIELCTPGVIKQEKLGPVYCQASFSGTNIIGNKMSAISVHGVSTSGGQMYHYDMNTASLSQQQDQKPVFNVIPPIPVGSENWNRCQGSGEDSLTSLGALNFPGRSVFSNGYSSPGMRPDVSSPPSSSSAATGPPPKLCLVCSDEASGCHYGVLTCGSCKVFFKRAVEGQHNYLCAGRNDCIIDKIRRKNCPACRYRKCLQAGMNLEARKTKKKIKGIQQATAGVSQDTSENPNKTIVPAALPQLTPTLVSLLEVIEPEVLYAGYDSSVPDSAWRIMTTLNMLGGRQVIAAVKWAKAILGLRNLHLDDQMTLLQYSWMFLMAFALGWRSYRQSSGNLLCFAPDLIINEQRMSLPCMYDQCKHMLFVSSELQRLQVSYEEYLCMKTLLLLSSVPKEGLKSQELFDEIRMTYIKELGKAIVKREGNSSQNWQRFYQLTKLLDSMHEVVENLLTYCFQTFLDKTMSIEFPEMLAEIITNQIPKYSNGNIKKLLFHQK
Procedure: as §2
For Table 4, brain cytosol fractions were prepared as for Table 3, and the compounds were incubated with 3 nM of ^3H-dexamethasone (the specific ligand for the glucocorticoid receptor).

[8] = test system: metrazol induced convulsions; conditions: cited from earlier work
[9] = test system: maximal electroshock tonic seizure; conditions: cited from earlier work
[10] = test system: STR (strychnine) convulsions; conditions: cited from earlier work
TBPS [11] = conditions: data from Swinyard & Woodhead 1982; cited from earlier work
[12] = test system: BIC (bicuclline) convulsions; conditions: cited from earlier work
[13] = data from Swinyard & Woodhead 1982; cited from earlier work
[14] = data from Swinyard & Woodhead 1982
[15] = convulsant i.v., data from Worms et al. 1982

## CC(=O)[C@H]1CC[C@H]2[C@@H]3CC[C@H]4C[C@](C)(O)CC[C@]4(C)[C@H]3CC[C@]12C [5α-pregnan-3α-ol-3β-methyl-20-one, 3α-hydroxy-3β-methyl-5α-pregnan-20-one]
[1]
  ED50: > 40 mg/kg
[2]
  ED50: 4.3 mg/kg
Hormonal activity
  hormonal activity when given to animals in vivo: not to have any hormonal activity
[3]
  ED50: 4.6 mg/kg
Progesterone Receptors
  % of Inhibition: 4%
TBPS [4]
  ED50: 11.7 mg/kg
[5]
  ED50 at 10 min: 33.4 mg/kg
[6]
  ED50: 29.7 mg/kg

## CC(C)(O)[C@H]1CC[C@H]2[C@@H]3CC[C@H]4C[C@H](O)CC[C@]4(C)[C@H]3CC[C@]12C [5α-pregnan-20-dimethyl-3α,20-diol, 5α-pregnan-20-dimethyl-3α,20-diol]
Estrogen Receptors
  % of Inhibition: 0%
[7]
  % of Inhibition: 0%
Glucocorticoid Receptors
  % of Inhibition: 2.6%
Progesterone Receptors
  % of Inhibition: 0%

## C[C@]12CC[C@@H](O)C[C@H]1CC[C@@H]1[C@@H]2CC[C@]2(C)[C@@H](C(=O)CO)CC[C@@H]12 [5β-pregnan-3α,21-diol-20-one, 5β-pregnan-3α,21-diol-20-one]
Estrogen Receptors
  % of Inhibition: 0%
[7]
  % of Inhibition: 13.8%
Glucocorticoid Receptors
  % of Inhibition: 8.2%
Progesterone Receptors
  % of Inhibition: 6%

## O=C1CN=C(c2ccccc2Cl)c2cc([N+](=O)[O-])ccc2N1 [Clonazepam]
[8]; [14]
  ED50 PTZ: 0.025 mg/kg
[9]; [14]
  ED50 MES: 111 mg/kg
[10]; [14]
  ED50 STR: >300 mg/kg
TBPS [11]
  ED50 TBPS: 205 mg/kg
[12]; [14]
  ED50 BIC: 0.0046 mg/kg
[13]
  ED50 RR: 0.184 mg/kg

## NC(=O)CCC/N=C(\c1ccc(Cl)cc1)c1cc(F)ccc1O [Progabide]
[8]; [15]
  ED50 PTZ: 30 mg/kg
[9]; data from Worms et al. 1982
  ED50 MES: 75 mg/kg
[10]; [15]
  ED50 STR: 75 mg/kg
[12]; [15]
  ED50 BIC: 30 mg/kg
